In patent US20230348540A1, “Viral multimeric peptide constructs for targeting PDZ domains” (University of Copenhagen, priority 2020, published 2023):
Blank lines part the entries; values can stand above or below the molecule they belong to. Peptide text beside a SMILES is read from it. * marks the point of attachment. Biotin = O=C1N[C@H]2[C@H](CS[C@H]2CCCCC(=O)*)N1; Ahx = NCCCCCC(=O)O

Tests used:
PSD-95 PDZ12 [1] = molecular target: T1, PSD-95 PDZ12 (Homo sapiens, UniProt P78352); experiment: Fluorescence polarization for PSD-95 PDZ12 (Example 8); assay type: binding; conditions: in words, FIG. 18
T1 construct: Fluorescence polarization for PSD-95 (FL and PDZ12)
T1 sequence (P78352 61-249 limits assumed): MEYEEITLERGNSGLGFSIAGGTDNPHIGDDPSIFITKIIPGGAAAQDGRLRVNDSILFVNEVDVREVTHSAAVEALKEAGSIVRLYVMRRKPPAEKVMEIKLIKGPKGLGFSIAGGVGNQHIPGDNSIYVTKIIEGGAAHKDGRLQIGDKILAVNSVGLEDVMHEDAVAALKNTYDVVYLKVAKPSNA
Experimental: Fluorescence polarization for PSD-95 (FL and PDZ12): Fluorescence polarization was carried out in competition mode at a fixed concentration of protein (150 nM) and tracer (5[…], 5 nM), against an increasing concentration of unlabeled peptide.

FL-PSD-95 = molecular target: T2, FL-PSD-95 (Homo sapiens, UniProt P78352); experiment: Size exclusion chromatography of PSD-95 in absence or presence of peptide; conditions: 10 μM FL-PSD-95, 50 μM peptide, Example 8
T2 construct: TRX-6xHis-hPSD95 1-724 encoding plasmid; TRX (thioredoxin) (N); 6xHis (N); made in house; host or cells: E. coli BL21-DE3-pLysS
T2 sequence (P78352 whole entry): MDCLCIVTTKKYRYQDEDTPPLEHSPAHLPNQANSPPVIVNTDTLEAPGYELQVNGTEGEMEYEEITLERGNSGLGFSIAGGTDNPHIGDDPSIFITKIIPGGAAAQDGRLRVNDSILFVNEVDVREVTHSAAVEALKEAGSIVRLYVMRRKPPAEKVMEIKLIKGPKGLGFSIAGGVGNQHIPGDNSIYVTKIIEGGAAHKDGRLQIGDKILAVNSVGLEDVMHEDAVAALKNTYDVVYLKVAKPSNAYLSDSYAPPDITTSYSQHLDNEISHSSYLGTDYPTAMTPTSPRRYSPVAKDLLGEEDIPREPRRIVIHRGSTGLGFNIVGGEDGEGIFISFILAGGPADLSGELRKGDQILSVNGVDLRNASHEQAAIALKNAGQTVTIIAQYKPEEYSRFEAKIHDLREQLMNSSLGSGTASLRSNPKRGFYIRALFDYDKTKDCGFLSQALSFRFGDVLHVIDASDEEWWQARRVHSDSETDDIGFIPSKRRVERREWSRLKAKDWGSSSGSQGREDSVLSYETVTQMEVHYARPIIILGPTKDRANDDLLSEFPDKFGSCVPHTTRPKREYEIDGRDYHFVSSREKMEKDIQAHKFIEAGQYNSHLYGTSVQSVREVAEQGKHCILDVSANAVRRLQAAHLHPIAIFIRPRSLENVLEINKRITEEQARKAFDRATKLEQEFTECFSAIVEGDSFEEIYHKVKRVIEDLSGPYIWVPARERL
Experimental: (§1) Size exclusion chromatography: was done using a Äkta purifier with a Superdex200 Increase 10/300 column, where, 500 μL of 30 μM PICK1 or 200 μL 10 uM of FL-PSD-95 in absence or presence of peptides was loaded. Absorbance profile was measured at 280 nm and plotted against elution volume using Graph Pad Prism 8.3.

PICK1 [2] = molecular target: T3, PICK1 (Rattus norvegicus, UniProt Q9EP80); experiment: Fluorescence polarization competition of HWLKV substitution peptide libraries (Example 6); assay type: binding; conditions: relative to HWLKV, tracer 5FAM-HWLKV 20 nM, FIG. 7, in words
T3 construct: Full length rat PICK1 (pET41) was prepared as described earlier; inferred from pET41 and glutathione-Sepharose capture) (N, cleaved yes); made in house; host or cells: E. coli BL21-DE3-pLysS
T3 sequence (Q9EP80 whole entry): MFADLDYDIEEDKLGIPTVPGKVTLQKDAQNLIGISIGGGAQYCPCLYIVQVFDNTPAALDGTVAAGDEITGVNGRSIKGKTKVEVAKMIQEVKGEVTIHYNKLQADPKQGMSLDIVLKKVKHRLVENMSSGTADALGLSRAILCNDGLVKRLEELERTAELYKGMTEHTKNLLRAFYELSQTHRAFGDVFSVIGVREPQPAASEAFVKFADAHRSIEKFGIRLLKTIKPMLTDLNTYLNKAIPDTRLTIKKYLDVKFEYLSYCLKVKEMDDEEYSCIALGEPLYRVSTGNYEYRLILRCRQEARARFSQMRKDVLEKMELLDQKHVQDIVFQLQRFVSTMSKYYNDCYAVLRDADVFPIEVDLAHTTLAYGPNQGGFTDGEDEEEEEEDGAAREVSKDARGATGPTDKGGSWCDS
Experimental: Fluorescence polarization: Fluorescence polarization was carried out in competition mode at a fixed concentration of protein and tracer (5[…], 20 nM), against an increasing concentration of indicated unlabeled peptide. The plate was incubated 20 min on ice in a black half-area Corning Black non-binding surface 96-well plate and the fluorescence polarization was measured directly on a Omega POLARstar plate reader using excitation filter at 488-nm and long pass emission filter at 535-nm.

PICK1 [3] = molecular target: T3, PICK1; experiment: Fluorescence Polarization for PICK1 (Example 8); assay type: binding; conditions: in words, FIG. 17
Experimental: The plates were incubated 30-40 min on ice and the fluorescence polarization was measured on an Omega POLARstar plate (BMG LABTECH) reader using excitation filter at 485 nm and long pass emission filter at 520 nm. The data was plotted using GraphPad Prism 8.3, and fitted to the ‘One site—Fit’ Ki competition curve, to extract apparent KI values.

[4] = SEC-MALS of peptides (oligomeric state); assay type: physicochemical; conditions: 50 μL of 1000 μM peptide, Example 7
Experimental: Size exclusion chromatography Multi angle light scattering (SEC-MALS): was done using an Agilent HPLC equipped with a Wyatt MALS setup, where 50 μL of 1000 μM, of indicated peptide, was loaded onto a Superdex200 Increase 10/300 column. Resulting data was analyzed and molecular weight was calculated using the ASTRA® software package, data was plotted using GraphPad Prism 8.3.

PSD-95 = molecular target: T4, PSD-95 (Homo sapiens, UniProt P78352); experiment: SDS-PAGE sedimentation assay; conditions: 3 μM PSD-95, 12 μM or 36 μM peptide
T4 construct: TRX-6xHis-hPSD95 1-724 encoding plasmid; TRX (thioredoxin) (N); 6xHis (N); made in house; host or cells: E. coli BL21-DE3-pLysS
T4 sequence (P78352 whole entry): as the sequence (P78352 whole entry) above
Experimental: SDS-PAGE sedimentation assay: Proteins were mixed in the desired concentration in PBS-TCEP and equilibrated for 10 min before centrifugation at 20 000 g for 15 min at 25° C. using a temperature controlled table top centrifuge. Following centrifugation the supernatant was collected and the pellet was re-suspended in an equal amount of PBS-TCEP, usually 50 μL. To ensure proper resuspension of LLPS, the samples were vortexed before addition of SDS buffer followed by boiling at 95° C. for 5 min. Supernatant and pellet fractions were run on any kD™ Mini-PROTEAN® TGX™ Precast Protein Gels (10 or 15 wells, BioRad 4569036 or 4569033). Gels were imaged using a Li-COR Odyssey gel scanner and band intensities were analyzed using ImageJ.

PICK1 [5] = molecular target: T3, PICK1; experiment: Size exclusion chromatography of PICK1 in absence or presence of peptide; conditions: 30 μM PICK1, 50 μM peptide, Example 8
Experimental: Absorbance profiles were measured at 280 nm and plotted against elution volume using Graph Pad Prism 8.3.
as §1

PSD-95 PDZ12 [6] = molecular target: T1, PSD-95 PDZ12; experiment: Confocal microscopy on liquid-liquid phase separation droplets, PSD-95 PDZ1-2 (Example 8); conditions: 100 μM PSD-95 PDZ1-2
Experimental: Images were acquired using averaging of 4 line scans and 12-bit. The liquid-liquid phase separation droplets were prepared in the desired concentration in Phosphate buffered Saline supplemented with 1 mM TCEP (PBS-TCEP) and added to an untreated lab tec (155411PK) and imaged after being allowed to settle for 5 min at 25° C. For samples containing fluorescent protein or peptide the content of fluorescent protein or peptide was kept at 1% of indicated total protein or peptide concentration.

binding affinity to PICK1 as compared to the dimeric GCN4p1-GS4-HWLKV (PICK1 [3]): superior binding affinity
oligomeric configuration (SEC-MALS) [4]: hexameric configuration
Molecule: CC[C@H](C)[C@H](NC(=O)[C@H](CCC(=O)O)NC(=O)CNC(=O)CCCCCNC(=O)CCCC[C@@H]1SC[C@@H]2NC(=O)N[C@@H]21)C(=O)N[C@@H](C)C(=O)N[C@@H](CCCCN)C(=O)N[C@@H](CO)C(=O)N[C@@H](CC(C)C)C(=O)N[C@@H](CCCCN)C(=O)N[C@@H](CCC(=O)O)C(=O)N[C@H](C(=O)N[C@@H](C)C(=O)N[C@@H](CCCCN)C(=O)N[C@@H](CO)C(=O)N[C@@H](CC(C)C)C(=O)N[C@@H](CCCCN)C(=O)N[C@@H](CCC(=O)O)C(=O)N[C@H](C(=O)N[C@@H](C)C(=O)N[C@@H](Cc1c[nH]c2ccccc12)C(=O)N[C@@H](CO)C(=O)N[C@@H](CC(C)C)C(=O)N[C@@H](CCCCN)C(=O)N[C@@H](CCC(=O)O)C(=O)N[C@H](C(=O)N[C@@H](C)C(=O)N[C@@H](CCCCN)C(=O)N[C@@H](CO)C(=O)N[C@@H](CC(C)C)C(=O)N[C@@H](CCCCN)C(=O)NCC(=O)NCC(=O)NCC(=O)NCC(=O)N[C@@H](CO)C(=O)N[C@@H](Cc1c[nH]cn1)C(=O)N[C@@H](Cc1c[nH]c2ccccc12)C(=O)N[C@@H](CC(C)C)C(=O)N[C@@H](CCCCN)C(=O)N[C@H](C(=O)O)C(C)C)[C@@H](C)CC)[C@@H](C)CC)[C@@H](C)CC [CC-Hex2-GS4-HWLKV] ({Biotin-Ahx}-GEIAKSLKEIAKSLKEIAWSLKEIAKSLKGGGGSHWLKV-OH; C-terminus assumed)

oligomeric configuration (SEC-MALS) [4]: trimeric configuration
Molecule: CC[C@H](C)[C@H](NC(=O)[C@H](C)NC(=O)[C@H](C)NC(=O)[C@H](CC(C)C)NC(=O)[C@H](CCC(=O)O)NC(=O)[C@H](Cc1c[nH]c2ccccc12)NC(=O)[C@H](CCCCN)NC(=O)[C@@H](NC(=O)[C@H](C)NC(=O)[C@H](C)NC(=O)[C@H](CC(C)C)NC(=O)[C@H](CCC(=O)O)NC(=O)[C@H](CCCCN)NC(=O)[C@H](CCCCN)NC(=O)[C@@H](NC(=O)[C@H](C)NC(=O)[C@H](C)NC(=O)[C@H](CC(C)C)NC(=O)[C@H](CCC(=O)O)NC(=O)[C@H](CCC(N)=O)NC(=O)[C@H](CCCCN)NC(=O)[C@@H](NC(=O)[C@H](C)NC(=O)[C@H](C)NC(=O)[C@H](CC(C)C)NC(=O)[C@H](CCC(=O)O)NC(=O)CNC(=O)CCCCCNC(=O)CCCC[C@@H]1SC[C@@H]2NC(=O)N[C@@H]21)[C@@H](C)CC)[C@@H](C)CC)[C@@H](C)CC)C(=O)N[C@@H](CCCCN)C(=O)N[C@@H](CCC(N)=O)C(=O)NCC(=O)NCC(=O)NCC(=O)NCC(=O)N[C@@H](CO)C(=O)N[C@@H](Cc1c[nH]cn1)C(=O)N[C@@H](Cc1c[nH]c2ccccc12)C(=O)N[C@@H](CC(C)C)C(=O)N[C@@H](CCCCN)C(=O)N[C@H](C(=O)O)C(C)C [CC-Tet-GS4-HWLKV] ({Biotin-Ahx}-GELAAIKQELAAIKKELAAIKWELAAIKQGGGGSHWLKV-OH; C-terminus assumed)
formation of higher order oligomers of PICK1 (SEC) (PICK1 [5]): ability to form higher order oligomers of PICK1

threshold for LLPS formation of PSD-95 PDZ1-2 versus dimeric GCN4p1-GS4-RRTTPV (PSD-95 PDZ12 [6]): lowered thresholds for LLPS formation
binding affinity towards PSD95 PDZ1-2 (PSD-95 PDZ12 [1]): high binding affinity
Molecule: CC[C@H](C)[C@H](NC(=O)[C@H](CCC(=O)O)NC(=O)CNC(=O)CCCCCNC(=O)CCCC[C@@H]1SC[C@@H]2NC(=O)N[C@@H]21)C(=O)N[C@@H](C)C(=O)N[C@@H](CCCCN)C(=O)N[C@@H](CO)C(=O)N[C@@H](CC(C)C)C(=O)N[C@@H](CCCCN)C(=O)N[C@@H](CCC(=O)O)C(=O)N[C@H](C(=O)N[C@@H](C)C(=O)N[C@@H](CCCCN)C(=O)N[C@@H](CO)C(=O)N[C@@H](CC(C)C)C(=O)N[C@@H](CCCCN)C(=O)N[C@@H](CCC(=O)O)C(=O)N[C@H](C(=O)N[C@@H](C)C(=O)N[C@@H](Cc1c[nH]c2ccccc12)C(=O)N[C@@H](CO)C(=O)N[C@@H](CC(C)C)C(=O)N[C@@H](CCCCN)C(=O)N[C@@H](CCC(=O)O)C(=O)N[C@H](C(=O)N[C@@H](C)C(=O)N[C@@H](CCCCN)C(=O)N[C@@H](CO)C(=O)N[C@@H](CC(C)C)C(=O)N[C@@H](CCCCN)C(=O)NCC(=O)NCC(=O)NCC(=O)NCC(=O)N[C@@H](CO)C(=O)N[C@@H](CCCNC(=N)N)C(=O)N[C@@H](CCCNC(=N)N)C(=O)N[C@H](C(=O)N[C@H](C(=O)N1CCC[C@H]1C(=O)N[C@H](C(=O)O)C(C)C)[C@@H](C)O)[C@@H](C)O)[C@@H](C)CC)[C@@H](C)CC)[C@@H](C)CC [CC-Hex2-GS4-RRTTPV] ({Biotin-Ahx}-GEIAKSLKEIAKSLKEIAWSLKEIAKSLKGGGGSRRTTPV-OH; C-terminus assumed)
formation of higher order oligomers of PSD-95 (SEC) (FL-PSD-95): Formation of higher order oligomers of PSD-95 was also observed

Fold affinity change of combinatorial peptide library (PICK1 [2]): optimal 4-mer sequences
Molecule: EIRV (DAT C5 VARIANT)

Fold affinity change of combinatorial peptide library (PICK1 [2]): optimal 4-mer sequences
Molecule: YIIV (DAT C5 VARIANT)

Fold affinity change of combinatorial peptide library (PICK1 [2]): optimal 5-mer sequences
Molecule: NSVRV (DAT C5 VARIANT)

The remaining lines, values behind:

Molecule: CC[C@H](C)[C@H](NC(=O)[C@H](CCC(=O)O)NC(=O)CNC(=O)CCCCCNC(=O)CCCC[C@@H]1SC[C@@H]2NC(=O)N[C@@H]21)C(=O)N[C@@H](C)C(=O)N[C@@H](CCCCN)C(=O)N[C@@H](CO)C(=O)N[C@@H](CC(C)C)C(=O)N[C@@H](CCCCN)C(=O)N[C@@H](CCC(=O)O)C(=O)N[C@H](C(=O)N[C@@H](C)C(=O)N[C@@H](CCCCN)C(=O)N[C@@H](CO)C(=O)N[C@@H](CC(C)C)C(=O)N[C@@H](CCCCN)C(=O)N[C@@H](CCC(=O)O)C(=O)N[C@H](C(=O)N[C@@H](C)C(=O)N[C@@H](Cc1c[nH]c2ccccc12)C(=O)N[C@@H](CO)C(=O)N[C@@H](CC(C)C)C(=O)N[C@@H](CCCCN)C(=O)N[C@@H](CCC(=O)O)C(=O)N[C@H](C(=O)N[C@@H](C)C(=O)N[C@@H](CCCCN)C(=O)N[C@@H](CO)C(=O)N[C@@H](CC(C)C)C(=O)N[C@@H](CCCCN)C(=O)NCC(=O)NCC(=O)NCC(=O)NCC(=O)N[C@@H](CO)C(=O)N[C@H](C(=O)N[C@@H](CCC(=O)O)C(=O)N[C@H](C(=O)N[C@@H](CC(=O)O)C(=O)N[C@H](C(=O)O)C(C)C)[C@@H](C)O)[C@@H](C)CC)[C@@H](C)CC)[C@@H](C)CC)[C@@H](C)CC [CC-Hex2-GS4-IETDV] ({Biotin-Ahx}-GEIAKSLKEIAKSLKEIAWSLKEIAKSLKGGGGSIETDV-OH; C-terminus assumed)
binding affinity towards PSD95 PDZ1-2 (PSD-95 PDZ12 [1]): high binding affinity
formation of higher order oligomers of PSD-95 (SEC) (FL-PSD-95): ability to form higher order oligomers of PSD-95

Molecule: IRV [DAT-C5 variant]
Fold affinity change of combinatorial peptide library (PICK1 [2]): optimal 3-mer sequences

Molecule: TSIRV (DAT C5 VARIANT)
Fold affinity change of combinatorial peptide library (PICK1 [2]): optimal 5-mer sequences

Molecule: IIV [DAT-C5 variant]
Fold affinity change of combinatorial peptide library (PICK1 [2]): optimal 3-mer sequences

Molecule: SNTANRRTTPV (RRTTPV monomer)
distribution of PSD-95 between supernatant and pellet (PSD-95): the majority of PSD-95 is found in the supernatant

Molecule: GEIAKSLKEIAKSLKEIAWSLKEIAKSLKGGGGSNSVRV (CC-Hex2-GS4-NSVRV)
binding affinity to PICK1 as compared to the dimeric GCN4p1-GS4-HWLKV (PICK1 [3]): superior binding affinity
